# Results from patent US20210087206A1, “MACROCYCLIC KINASE INHIBITORS AND THEIR USE” (TURNING POINT THERAPEUTICS, INC., priority 2017, published 2021).
# Assays:
# Experiment in all cases: Cell proliferation assay (CellTiter-Glo)
# Format in all cases: cell-based
# [1] = target: T1, BaF3 EML4-ALK (Homo sapiens, UniProt Q9UM73); details: anti-cell proliferation, 72 hours
# T1 construct: The EML4-ALK gene (variant 1) was synthesized at GenScript and cloned into pCDH-CMV-MCS-EF1-Puro plasmid (System Biosciences, Inc); fused on or other part: EML4 N-terminal part (variant 1: exons 1-13, with the coiled-coil that oligomerises the fusion) fused to the intracellular part of ALK, which contains the kinase domain; Q9HC35 (Echinoderm microtubule-associated protein-like 4)
# Method in brief: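 Ba/F3 cells were lentivirally transduced with EML4-ALK variant 1 and selected for puromycin resistance and IL-3-independent growth. Proliferation was measured by CellTiter-Glo ATP luminescence to give IC50.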
# [2] = test system: KG-1 cell (OP2-FGFR1); details: Homo sapiens, anti-cell proliferation, 72 hours
# Method in brief: (§1)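 Cells seeded 24 h, then exposed to compounds for 72 h at 37° C., 5% CO2. Proliferation read by CellTiter-Glo luminescent ATP detection; IC50 from dose-response fits.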
# [3] = test system: KM12 (TPM3-TRKA); details: Homo sapiens, anti-cell proliferation, 72 hours
# Method in brief: as §1
# T1 sequence (Q9UM73 whole entry, stated change not applied, the tested form may be a part): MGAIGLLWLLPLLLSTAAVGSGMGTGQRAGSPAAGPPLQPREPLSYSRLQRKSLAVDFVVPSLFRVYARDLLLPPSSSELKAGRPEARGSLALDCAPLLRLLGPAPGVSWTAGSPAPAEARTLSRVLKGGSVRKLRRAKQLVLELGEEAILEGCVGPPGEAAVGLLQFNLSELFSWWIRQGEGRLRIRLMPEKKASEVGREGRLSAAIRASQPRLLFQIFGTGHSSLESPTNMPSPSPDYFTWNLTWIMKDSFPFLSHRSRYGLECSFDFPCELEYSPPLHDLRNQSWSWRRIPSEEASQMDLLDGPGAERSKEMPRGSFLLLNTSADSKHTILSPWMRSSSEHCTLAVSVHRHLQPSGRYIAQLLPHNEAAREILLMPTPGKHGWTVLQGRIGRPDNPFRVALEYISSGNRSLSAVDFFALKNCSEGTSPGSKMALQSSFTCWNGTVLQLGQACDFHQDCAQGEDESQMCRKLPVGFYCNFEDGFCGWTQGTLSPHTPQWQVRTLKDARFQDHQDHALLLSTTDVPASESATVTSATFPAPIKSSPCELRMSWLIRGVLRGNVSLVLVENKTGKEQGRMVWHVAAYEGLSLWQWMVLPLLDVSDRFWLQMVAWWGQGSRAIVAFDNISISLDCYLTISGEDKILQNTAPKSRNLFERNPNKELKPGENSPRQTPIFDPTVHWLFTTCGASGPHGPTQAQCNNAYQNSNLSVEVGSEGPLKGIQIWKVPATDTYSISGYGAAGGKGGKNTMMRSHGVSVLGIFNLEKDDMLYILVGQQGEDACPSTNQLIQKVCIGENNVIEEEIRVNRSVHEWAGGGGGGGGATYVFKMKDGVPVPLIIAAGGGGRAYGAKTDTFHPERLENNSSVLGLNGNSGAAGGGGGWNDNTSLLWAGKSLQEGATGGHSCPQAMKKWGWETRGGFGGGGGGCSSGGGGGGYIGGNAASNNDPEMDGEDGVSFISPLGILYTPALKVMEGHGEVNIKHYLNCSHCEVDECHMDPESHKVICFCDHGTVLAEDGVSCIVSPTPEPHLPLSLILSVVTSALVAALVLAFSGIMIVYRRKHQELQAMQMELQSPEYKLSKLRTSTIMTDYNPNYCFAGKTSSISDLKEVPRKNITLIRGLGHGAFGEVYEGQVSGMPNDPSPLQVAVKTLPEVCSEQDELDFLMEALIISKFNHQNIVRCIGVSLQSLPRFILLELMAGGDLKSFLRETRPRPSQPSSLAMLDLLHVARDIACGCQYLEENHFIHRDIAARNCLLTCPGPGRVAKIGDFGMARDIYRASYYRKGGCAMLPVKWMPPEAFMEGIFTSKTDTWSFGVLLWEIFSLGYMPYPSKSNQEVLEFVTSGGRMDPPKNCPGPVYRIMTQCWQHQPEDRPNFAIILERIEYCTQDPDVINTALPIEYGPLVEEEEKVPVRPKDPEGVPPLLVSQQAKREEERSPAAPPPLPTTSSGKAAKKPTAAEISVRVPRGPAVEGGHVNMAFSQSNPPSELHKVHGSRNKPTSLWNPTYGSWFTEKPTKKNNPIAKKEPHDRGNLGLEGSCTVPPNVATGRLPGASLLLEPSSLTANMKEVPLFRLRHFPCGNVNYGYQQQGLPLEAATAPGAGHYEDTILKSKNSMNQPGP
SMILES,IC50 [1] [µM],IC50 [2] [µM],IC50 [3] [µM]
"C[C@H]1CNC(=O)c2cnn3cc4c(nc23)N(Cc2cc(F)ccc2O1)[C@H](COCc1ccccc1)CO4 [Compound 11, (4R,12S)-4-[(benzyloxy)methyl)-8-fluoro-12-methyl-3,4,13,14-tetrahydro-6H-18,1-(metheno)-[1,4]oxazino[3,4-i]pyrazolo[4,3-f][1,4,8,10]benzoxatriazacyclo-tridecin-15(12H)-one]",3.17,4,0.0911
"C[C@@H]1COc2cn3ncc4c3nc2N1Cc1cc(F)cnc1OCCC(C)(C)NC4=O [Compound 70, (16R)-12-fluoro-6,6,16-trimethyl-5,6,7,8,16,17-hexahydro-4H,14H-1,19-(metheno)[1,4]oxazino[4,3-e]pyrazolo[3,4-h]pyrido[2,3-b] [1,5,7,11]oxatriazacyclotetradecin-4-one]",0.0357,0.0517,< 0.0002
"CC1CCNC(=O)c2cnn3cc4c(nc23)N(Cc2cc(F)cnc2O1)[C@H](C)CO4 (stereo partly drawn) [Compound 69, (16R)-12-fluoro-8,16-dimethyl-5,6,7,8,16,17-hexahydro-4H,14H-1,19-(metheno)[1,4]oxazino[4,3-e]pyrazolo[3,4-h]pyrido[2,3-b] [1,5,7,11]oxatriazacyclotetradecin-4-one]",0.0879,0.0237,< 0.0002
"CC[C@@H]1COc2cn3ncc4c3nc2N1Cc1cc(F)cnc1OCC1(CC1)NC4=O [Compound 72, (4′R)-4′-ethyl-8′-fluoro-3′H,4′H,6′H,12′H,14′H,15′H-spiro[cyclopropane-1,13′-[2,11]dioxa[5,10,14,17,18,19]hexaaza-[18,1](metheno)[1,4]oxazino-[3,4-i]pyrazolo[4,3-f]pyrido[3,2-l][1,4,8,10]oxatriazacyclotridecin]-15′-one]",0.0188,0.0039,< 0.0002
"C[C@@H]1COc2ncc(F)cc2CN2c3nc4c(cnn4cc3OC[C@H]2C(N)=O)C(=O)N1 [Compound 60, (4S,13R)-8-fluoro-13-methyl-15-oxo-3,4,12,13,14,15-hexahydro-6H-18,1-(metheno)[1,4]oxazino[3,4-i]pyrazolo[4,3-f]pyrido[3,2-l][1,4,8,10]oxatriazacyclotridecine-4-carboxamide]",> 10,> 10,0.0512
"C[C@@H]1COc2cn3ncc4c3nc2N1Cc1cc(F)cnc1O[C@H]1CCC[C@H]1NC4=O [Compound 49, (8R,15aS,18aR)-12-fluoro-8-methyl-7,8,15a,16,17,18,18a, 19-octahydro-10H,20H-3,5-(metheno)cyclopenta[b][1,4]-oxazino[3,4-i]pyrazolo[4,3-f]-pyrido[3,2-l][1,4,8,10]-oxatriazacyclotridecin-20-one]",0.0551,0.0095,< 0.0002
"C[C@@H]1COc2cn3ncc4c3nc2N1Cc1cc(F)cnc1OCC1(CCCC1)NC4=O [Compound 52, (4'R)-8'-fluoro-4'-methyl-3'H,4'H,6'H,12'H,14'H,15'H-spiro[cyclopentane-1,13'-[2,11]-dioxa[5,10,14,17,18,19]hexaaza-[18,1](metheno)[1,4]oxazino[3,4-i]pyrazolo[4,3-f]pyrido[3,2-l] [1,4,8,10]oxatriazacyclotridecin]-15’-one]",0.277,0.359,< 0.0002
"C[C@@H]1COc2cn3ncc4c3nc2N1Cc1cc(F)cnc1OC[C@H](CO)NC4=O [Compound 82, (4R,13S)-8-fluoro-13-(hydroxy-methyl)-4-methyl-3,4,13,14-tetrahydro-6H-18,1-(metheno)-[1,4]oxazino[3,4-i]pyrazolo[4,3-f]pyrido[3,2-l][1,4,8,10]oxatriaza-cyclotridecin-15(12H)-one]",0.657,0.0373,< 0.0002
"C[C@@H]1COc2c(F)cc(F)cc2CN2c3nc4c(cnn4cc3OC[C@H]2C)C(=O)N1 [Compound 16, (4R,13R)-8,10-difluoro-4,13-dimethyl-3,4,13,14-tetrahydro-6H-18,1-(metheno)[1,4]oxazino-[3,4-i]pyrazolo[4,3-f][1,4,8,10]-benzoxatriazacyclotridecin-15(12H)-one]",0.0902,0.827,< 0.0002
"C[C@@H]1COc2ncc(F)cc2CN2c3nc4c(cnn4cc3OC[C@H]2CN=[N+]=[N-])C(=O)N1 [Compound 43, (4R,13R)-4-(azidomethyl)-8-fluoro-13-methyl-3,4,13,14-tetrahydro-6H-18,1-(metheno)-[1,4]oxazino[3,4-i]pyrazolo[4,3-f]pyrido[3,2-l][1,4,8,10]oxatriaza-cyclotridecin-15(12H)-one]",0.085,0.0306,0.0002
"C[C@@H]1COc2cn3ncc4c3nc2N(Cc2cc(F)ccc2O[C@@H](C)CNC4=O)C1 [Compound 20, (4S,13S)-9-fluoro-4,13-dimethyl-4,5,14,15-tetrahydro-3H,7H-19,1-(metheno)[1,4]oxazepino[3,4-i]-pyrazolo[4,3-f][1,4,8,10]benzo-xatriazacyclotridecin-16(13H)-one]",4.91,2.43,0.0051
"C[C@@H]1COc2cn3ncc4c3nc2N1Cc1cc(F)cnc1OC[C@@H](C(F)F)NC4=O [Compound 97, (4R,13S)-13-(difluoromethyl)-8-fluoro-4-methyl-3,4,13,14-tetra-hydro-6H-18,1-(metheno)[1,4]-oxazino[3,4-i]pyrazolo[4,3-f]pyrido[3,2-l][1,4,8,10]oxatriaza-cyclotridecin-15(12H)-one]",0.0202,0.0199,< 0.0002
"C[C@@H]1COc2cn3ncc4c3nc2N1Cc1cc(F)cnc1OCC(C)(C)NC4=O [Compound 40, (4R)-8-fluoro-4,13,13-trimethyl-3,4,13,14-tetrahydro-6H-18,1-(metheno)[1,4]oxazino[3,4-i]-pyrazolo[4,3-f]pyrido[3,2-l] [1,4,8,10]oxatriazacyclotridecin-15(12H)-one]",< 0.0002,0.0002,< 0.0002
"C[C@H]1CNC(=O)c2cnn3cc4c(nc23)N(Cc2cc(F)cnc2O1)CC(F)(F)CO4 [Compound 77, (13S)-4,4,9-trifluoro-13-methyl-4,5,14,15-tetrahydro-3H,7H-19,1-(metheno)[1,4]oxazepino[3,4-i]-pyrazolo[4,3-f]pyrido[3,2-l] [1,4,8,10]oxatriazacyclotridecin-16(13H)-one]",> 10,10,0.446
"C[C@H]1CNC(=O)c2cnn3cc4c(nc23)N(Cc2cc(F)cnc2OC1)[C@H](C)CO4 [Compound 35, (7S,16R)-12-fluoro-7,16-dimethyl-5,6,7,8,16,17-hexahydro-4H,14H-1,19-(metheno)[1,4]oxazino[4,3-e]pyrazolo[3,4-h]pyrido[2,3-b] [1,5,7,11]oxatriazacyclotetra-decin-4-one]",0.0482,0.0335,< 0.0002
"C[C@@H]1COc2ncc(F)cc2CN2c3nc4c(cnn4cc3OC[C@H]2CC#N)C(=O)N1 [Compound 41, [(4R,13R)-8-fluoro-13-methyl-15-oxo-3,4,12,13,14,15-hexahydro-6H-18,1-(metheno)[1,4]oxazino[3,4-i]pyrazolo[4,3-f]pyrido[3,2-][1,4,8,10]oxatriazacyclotridecin-4-yl]acetonitrile]",1.17,0.611,0.0005
"C[C@H]1CNC(=O)c2cnn3cc4c(nc23)N(Cc2cc(F)cnc2O1)C1(CO4)CC(F)(F)C1 [Compound 64, (12′S)-3,3,8′-trifluoro-12′-methyl-3′H,6′H,12′H,13′H,14′H,15′H-spiro[cyclobutane-1,4′-[2,11]-dioxa[5,10,14,17,18,19]hexaaza-[18,1](metheno)[1,4]oxazino[3,4-i]pyrazolo[4,3-f]pyrido[3,2-l] [1,4,8,10]oxatriazacyclotridecin]-15′-one]",1.23,10,< 0.0002
"C[C@H]1COc2cn3ncc4c3nc2N1Cc1cc(F)ccc1OCCNC4=O [Compound 2, (4S)-8-fluoro-4-methyl-3,4,13,14-tetrahydro-6H-18,1-(metheno)[1,4]oxazino[3,4-i]pyrazolo[4,3-f][1,4,8,10]benzoxatriazacyclotridecin-15(12H)-one]",> 10,> 10,0.0267
"C[C@H]1CNC(=O)c2cnn3cc4c(nc23)N(Cc2cc(F)ccc2O1)[C@H](CO)CO4 [Compound 12, (4R,12S)-8-fluoro-4-(hydroxymethyl)-12-methyl-3,4,13,14-tetrahydro-6H-18,1-(metheno)[1,4]oxazino[3,4-i]pyrazolo[4,3-f][1,4,8,10]benzoxatriazacyclotridecin-15(12H)-one]",1.46,2,0.0008
"C[C@@H]1COc2cn3ncc4c3nc2N1Cc1cc(F)cnc1O[C@H]1CCC[C@@H]1NC4=O [Compound 53, (8R,15aS,18aS)-12-fluoro-8-methyl-7,8,15a,16,17,18,18a, 19-octahydro-10H,20H-3,5-(metheno)cyclopenta[b][1,4]-oxazino[3,4-i]pyrazolo[4,3-f]-pyrido[3,2-l][1,4,8,10]oxatriaza-cyclotridecin-20-one]",0.113,0.183,< 0.0002
"COC[C@@H]1COc2cn3ncc4c3nc2N1Cc1cc(F)cnc1OC[C@@H](C)NC4=O [Compound 44, (4R,13R)-8-fluoro-4-(methoxymethyl)-13-methyl-3,4,13,14-tetrahydro-6H-18,1-(metheno)[1,4]oxazino[3,4-i]pyrazolo[4,3-f]pyrido[3,2-1][1,4,8,10]oxatriazacyclotridecin-15(12H)-one]",0.549,0.168,< 0.0002
